Reference: the OPERA property sets (Mansouri et al. 2018)

| SMILES | logP |
| --- | --- |
| CCC(CC)C(=O)NS(=O)(=O)c1ccccc1N | 1.64 |
| CCC(CC)C(=O)Nc1cc(C)ccc1S(N)(=O)=O | 2.13 |
| CC(C)C(=O)NS(=O)(=O)c1ccccc1[N+](=O)[O-] | 1.72 |
| CC(C)C(=O)Nc1cc(Cl)ccc1S(N)(=O)=O | 1.87 |
| CCC(CC)C(=O)Nc1ccccc1S(N)(=O)=O | 1.62 |
| CCC(CC)C(=O)Nc1cc(C(F)(F)F)ccc1S(N)(=O)=O | 3.06 |
| CCC(CC)C(=O)NS(=O)(=O)c1ccccc1[N+](=O)[O-] | 2.17 |
| CC(C)C(=O)Nc1ccccc1S(N)(=O)=O | 0.97 |
| CCC(CC)C(=O)Nc1cc(OC)ccc1S(N)(=O)=O | 2.01 |
| CCC(CC)C(=O)NS(=O)(=O)c1cc([N+](=O)[O-])cc(C(F)(F)F)c1 | 3.57 |

Other lines, results leading:

| logP | SMILES |
| --- | --- |
| 1.45 | Cc1ccc(S(N)(=O)=O)c(NC(=O)C(C)C)c1 |
| 1.17 | CC(C)C(=O)NS(=O)(=O)c1ccccc1N |
| 2.03 | CCC(CC)C(=O)NS(=O)(=O)c1ccc(OC)cc1N |
| 2.17 | Cc1ccc(S(=O)(=O)NC(=O)C(C)C)c([N+](=O)[O-])c1 |
| 2.67 | CCC(CC)C(=O)NS(=O)(=O)c1ccc(C)cc1[N+](=O)[O-] |
| 1.37 | COc1ccc(S(N)(=O)=O)c(NC(=O)C(C)C)c1 |
| 1.58 | COc1ccc(S(=O)(=O)NC(=O)C(C)C)c(N)c1 |
| 1.65 | Cc1ccc(S(=O)(=O)NC(=O)C(C)C)c(N)c1 |
